According to patent publication US10894036B2, “Use of marizomib for the treatment of central nervous system (CNS) cancers” (Celgene International II Sàrl, priority 2016, dated 2021):

Experiment: Phase 1/2 MRZ + BEV and MRZ monotherapy in recurrent G4 MG: adverse events, DLT
[1] = MRZ+BEV, 36 pts, as of 12 Sep. 2016

Method: The clinical trial was a Phase 1, dose-escalation (3+3 design) followed by dose-expansion at recommended Phase 2 Dose (RP2D).
The drugs were infused on 28-Day Cycles. Tumor response is assessed every other cycle by RANO criteria.
The safety data will be presented in individual listings and summary tables, including frequency tables for adverse events and frequency and shift tables for laboratory variables. The safety population will be all subjects who received at least one dose of either study drug in Phase 1 or MRZ in Phase 2.

C[C@@]12OC(=O)[C@]1([C@@H](O)[C@@H]1C=CCCC1)NC(=O)[C@@H]2CCCl [marizomib]
confusional state, marizomib-related adverse events ≥3, patients (MRZ + BEV, N = 36): 3 | headache, marizomib-related adverse events ≥3, patients (MRZ + BEV, N = 36): 3 | patients with marizomib-related serious adverse events (MRZ + BEV, N = 36): Four | Anaemia: # pts, related to MRZ (MRZ+BEV, 12 Sep. 2016): 6 | Anxiety: # pts, related to MRZ (MRZ+BEV, 12 Sep. 2016): 0 | Aphasia: # pts, related to MRZ (MRZ+BEV, 12 Sep. 2016): 0 | Appendicitis Perforated: # pts, related to MRZ (MRZ+BEV, 12 Sep. 2016): 0 | Asthenia: # pts, related to MRZ (MRZ+BEV, 12 Sep. 2016): 0 | Ataxia: # pts, related to MRZ (MRZ+BEV, 12 Sep. 2016): 6 | Confusional State: # pts, related to MRZ (MRZ+BEV, 12 Sep. 2016): 6 | Constipation: # pts, related to MRZ (MRZ+BEV, 12 Sep. 2016): 4 | Convulsion: # pts, related to MRZ (MRZ+BEV, 12 Sep. 2016): 0 | Delusion: # pts, related to MRZ (MRZ+BEV, 12 Sep. 2016): 1 | Depressed Level of Consciousness: # pts, related to MRZ (MRZ+BEV, 12 Sep. 2016): 0 | Diarrhoea: # pts, related to MRZ (MRZ+BEV, 12 Sep. 2016): 9 | Dizziness: # pts, related to MRZ (MRZ+BEV, 12 Sep. 2016): 8 | Dysarthria: # pts, related to MRZ (MRZ+BEV, 12 Sep. 2016): 1 | Dysphagia: # pts, related to MRZ (MRZ+BEV, 12 Sep. 2016): 0 | Dysphonia: # pts, related to MRZ (MRZ+BEV, 12 Sep. 2016): 0 | Dyspnoea: # pts, related to MRZ (MRZ+BEV, 12 Sep. 2016): 0 | Ear Infection: # pts, related to MRZ (MRZ+BEV, 12 Sep. 2016): 0 | Embolism: # pts, related to MRZ (MRZ+BEV, 12 Sep. 2016): 0 | Epistaxis: # pts, related to MRZ (MRZ+BEV, 12 Sep. 2016): 0 | Falls: # pts, related to MRZ (MRZ+BEV, 12 Sep. 2016): 3 | Fatigue: # pts, related to MRZ (MRZ+BEV, 12 Sep. 2016): 1 | Fracture of Femur: # pts, related to MRZ (MRZ+BEV, 12 Sep. 2016): 0 | Haemorrhage Intracranial: # pts, related to MRZ (MRZ+BEV, 12 Sep. 2016): 0 | Hallucination: # pts, related to MRZ (MRZ+BEV, 12 Sep. 2016): 11 | Headache: # pts, related to MRZ (MRZ+BEV, 12 Sep. 2016): 5 | Hemiparesis: # pts, related to MRZ (MRZ+BEV, 12 Sep. 2016): 0 | Hyperglycemia: # pts, related to MRZ (MRZ+BEV, 12 Sep. 2016): 0 | Hypertension: # pts, related to MRZ (MRZ+BEV, 12 Sep. 2016): 0 | Hypokalemia: # pts, related to MRZ (MRZ+BEV, 12 Sep. 2016): 0 | Hyponatremia: # pts, related to MRZ (MRZ+BEV, 12 Sep. 2016): 1 | Hypotension: # pts, related to MRZ (MRZ+BEV, 12 Sep. 2016): 0 | Infusion Site Pain: # pts, related to MRZ (MRZ+BEV, 12 Sep. 2016): 6 | Insomnia: # pts, related to MRZ (MRZ+BEV, 12 Sep. 2016): 1 | Lymphocyte Count Decreased: # pts, related to MRZ (MRZ+BEV, 12 Sep. 2016): 0 | Muscular Weakness: # pts, related to MRZ (MRZ+BEV, 12 Sep. 2016): 2 | Nausea: # pts, related to MRZ (MRZ+BEV, 12 Sep. 2016): 19 | Optic Nerve Disorder: # pts, related to MRZ (MRZ+BEV, 12 Sep. 2016): 0 | Pyramidal Tract Syndrome: # pts, related to MRZ (MRZ+BEV, 12 Sep. 2016): 0 | Tumor Metastasis: # pts, related to MRZ (MRZ+BEV, 12 Sep. 2016): 0 | Vision Blurred: # pts, related to MRZ (MRZ+BEV, 12 Sep. 2016): 3 | Vomiting: # pts, related to MRZ (MRZ+BEV, 12 Sep. 2016): 12 | Anaemia: # events related to MRZ (MRZ+BEV, 17 May 2016): 9 | Aphasia: # events related to MRZ (MRZ+BEV, 17 May 2016): 0 | Appendicitis Perforated: # events related to MRZ (MRZ+BEV, 17 May 2016): 0 | Asthenia: # events related to MRZ (MRZ+BEV, 17 May 2016): 0 | Ataxia: # events related to MRZ (MRZ+BEV, 17 May 2016): 10 | Confusional State: # events related to MRZ (MRZ+BEV, 17 May 2016): 8 | Constipation: # events related to MRZ (MRZ+BEV, 17 May 2016): 5 | Convulsion: # events related to MRZ (MRZ+BEV, 17 May 2016): 0 | Delusion: # events related to MRZ (MRZ+BEV, 17 May 2016): 1 | Diarrhoea: # events related to MRZ (MRZ+BEV, 17 May 2016): 12 | Dizziness: # events related to MRZ (MRZ+BEV, 17 May 2016): 13 | Dysarthria: # events related to MRZ (MRZ+BEV, 17 May 2016): 1 | Dysphagia: # events related to MRZ (MRZ+BEV, 17 May 2016): 0 | Dysphonia: # events related to MRZ (MRZ+BEV, 17 May 2016): 0 | Dyspnoea: # events related to MRZ (MRZ+BEV, 17 May 2016): 0 | Ear Infection: # events related to MRZ (MRZ+BEV, 17 May 2016): 0 | Embolism: # events related to MRZ (MRZ+BEV, 17 May 2016): 0 | Epistaxis: # events related to MRZ (MRZ+BEV, 17 May 2016): 0 | Fatigue: # events related to MRZ (MRZ+BEV, 17 May 2016): 1 | Haemorrhage Intracranial: # events related to MRZ (MRZ+BEV, 17 May 2016): 0 | Hallucination: # events related to MRZ (MRZ+BEV, 17 May 2016): 16 | Headache: # events related to MRZ (MRZ+BEV, 17 May 2016): 6 | Hemiparesis: # events related to MRZ (MRZ+BEV, 17 May 2016): 0 | Hyperglycemia: # events related to MRZ (MRZ+BEV, 17 May 2016): 0 | Hypertension: # events related to MRZ (MRZ+BEV, 17 May 2016): 0 | Hypokalemia: # events related to MRZ (MRZ+BEV, 17 May 2016): 1 | Hypotension: # events related to MRZ (MRZ+BEV, 17 May 2016): 0 | Insomnia: # events related to MRZ (MRZ+BEV, 17 May 2016): 1 | Lymphocyte Count Decreased: # events related to MRZ (MRZ+BEV, 17 May 2016): 0 | Muscular Weakness: # events related to MRZ (MRZ+BEV, 17 May 2016): 3 | Nausea: # events related to MRZ (MRZ+BEV, 17 May 2016): 36 | Pyramidal Tract Syndrome: # events related to MRZ (MRZ+BEV, 17 May 2016): 0 | Vomiting: # events related to MRZ (MRZ+BEV, 17 May 2016): 16 | Anaemia: # patients, AE related to labelled agent (BEV, MRZ, Both) [1]: 6 | Anxiety: # patients, AE related to labelled agent (BEV, MRZ, Both) [1]: 0 | Aphasia: # patients, AE related to labelled agent (BEV, MRZ, Both) [1]: 0 | Appendicitis Perforated: # patients, AE related to labelled agent (BEV, MRZ, Both) [1]: 0 | Asthenia: # patients, AE related to labelled agent (BEV, MRZ, Both) [1]: 0 | Ataxia: # patients, AE related to labelled agent (BEV, MRZ, Both) [1]: 6 | Confusional State: # patients, AE related to labelled agent (BEV, MRZ, Both) [1]: 6 | Constipation: # patients, AE related to labelled agent (BEV, MRZ, Both) [1]: 4 | Convulsion: # patients, AE related to labelled agent (BEV, MRZ, Both) [1]: 0 | Delusion: # patients, AE related to labelled agent (BEV, MRZ, Both) [1]: 1 | Depressed Level of Consciousness: # patients, AE related to labelled agent (BEV, MRZ, Both) [1]: 0 | Diarrhoea: # patients, AE related to labelled agent (BEV, MRZ, Both) [1]: 9 | Dizziness: # patients, AE related to labelled agent (BEV, MRZ, Both) [1]: 8 | Dysarthria: # patients, AE related to labelled agent (BEV, MRZ, Both) [1]: 1 | Dysphagia: # patients, AE related to labelled agent (BEV, MRZ, Both) [1]: 0 | Dysphonia: # patients, AE related to labelled agent (BEV, MRZ, Both) [1]: 0 | Dyspnoea: # patients, AE related to labelled agent (BEV, MRZ, Both) [1]: 0 | Ear Infection: # patients, AE related to labelled agent (BEV, MRZ, Both) [1]: 0 | Embolism: # patients, AE related to labelled agent (BEV, MRZ, Both) [1]: 0 | Epistaxis: # patients, AE related to labelled agent (BEV, MRZ, Both) [1]: 0 | Falls: # patients, AE related to labelled agent (BEV, MRZ, Both) [1]: 3 | Fatigue: # patients, AE related to labelled agent (BEV, MRZ, Both) [1]: 1 | Fracture of Femur: # patients, AE related to labelled agent (BEV, MRZ, Both) [1]: 0 | Haemorrhage Intracranial: # patients, AE related to labelled agent (BEV, MRZ, Both) [1]: 0 | Hallucination: # patients, AE related to labelled agent (BEV, MRZ, Both) [1]: 11 | Headache: # patients, AE related to labelled agent (BEV, MRZ, Both) [1]: 5 | Hemiparesis: # patients, AE related to labelled agent (BEV, MRZ, Both) [1]: 0 | Hyperglycemia: # patients, AE related to labelled agent (BEV, MRZ, Both) [1]: 0 | Hypertension: # patients, AE related to labelled agent (BEV, MRZ, Both) [1]: 0 | Hypokalemia: # patients, AE related to labelled agent (BEV, MRZ, Both) [1]: 0 | Hyponatremia: # patients, AE related to labelled agent (BEV, MRZ, Both) [1]: 1 | Hypotension: # patients, AE related to labelled agent (BEV, MRZ, Both) [1]: 0 | Infusion Site Pain: # patients, AE related to labelled agent (BEV, MRZ, Both) [1]: 6 | Insomnia: # patients, AE related to labelled agent (BEV, MRZ, Both) [1]: 1 | Lymphocyte Count Decreased: # patients, AE related to labelled agent (BEV, MRZ, Both) [1]: 0 | Muscular Weakness: # patients, AE related to labelled agent (BEV, MRZ, Both) [1]: 2 | Nausea: # patients, AE related to labelled agent (BEV, MRZ, Both) [1]: 19 | Optic Nerve Disorder: # patients, AE related to labelled agent (BEV, MRZ, Both) [1]: 0 | Pyramidal Tract Syndrome: # patients, AE related to labelled agent (BEV, MRZ, Both) [1]: 0 | Tumor Metastasis: # patients, AE related to labelled agent (BEV, MRZ, Both) [1]: 0 | Vision Blurred: # patients, AE related to labelled agent (BEV, MRZ, Both) [1]: 3 | Vomiting: # patients, AE related to labelled agent (BEV, MRZ, Both) [1]: 12 | tolerability (in combination with BEV and as monotherapy): generally well tolerated
